Results as given in patent US9670213B2, “Pteridine ketone derivative and applications thereof as EGFR, BLK, and FLT3 inhibitor” (EAST CHINA UNIVERSITY OF SCIENCE AND TECHNOLOGY, priority 2012, dated 2017).

Key:
Assay in all cases: Kinase selectivity analysis (Caliper mobility shift assay)
Type in all cases: biochemical
PDGFRa = PDGFRa (Homo sapiens (Human), UniProt P16234); conditions: for inhibition at 1 µM: read-out: % inhibition (1 μM), 1 μM; for inhibition at 10 µM: read-out: % inhibition (10 μM), 10 μM
Procedure: (§1) Kinase selectivity analysis: kinase selectivity experiment was performed by Shanghai ChemPartner using Caliper assay screening platform. All of kinases and other materials were purchased from commercial companies.
(§2) 3. Preparation of assay plate: 5 μL of solution from each well of the 96-well temporary plate was added into a 384-well plate, and the experiment was independently repeated.
(§3) 5. Caliper readings: experimental data were collected on Caliper.
(§4) 6. Curve fitting: 1) conversion data were replicated from Caliper program. 2) the conversion value was converted into inhibition rate, inhibition rate %=(maximum−conversion value)/(maximum−minimum)*100, wherein “maximum” represents DMSO control, and minimum represents the low control.

PIM1 = PIM1 (Homo sapiens (Human), UniProt P11309); conditions: for inhibition at 1 µM: read-out: % inhibition (1 μM), PIM1, 1 μM; for inhibition at 10 µM: read-out: % inhibition (10 μM), PIM1, 10 μM
Chain of PIM1 (P11309 whole entry, species assumed): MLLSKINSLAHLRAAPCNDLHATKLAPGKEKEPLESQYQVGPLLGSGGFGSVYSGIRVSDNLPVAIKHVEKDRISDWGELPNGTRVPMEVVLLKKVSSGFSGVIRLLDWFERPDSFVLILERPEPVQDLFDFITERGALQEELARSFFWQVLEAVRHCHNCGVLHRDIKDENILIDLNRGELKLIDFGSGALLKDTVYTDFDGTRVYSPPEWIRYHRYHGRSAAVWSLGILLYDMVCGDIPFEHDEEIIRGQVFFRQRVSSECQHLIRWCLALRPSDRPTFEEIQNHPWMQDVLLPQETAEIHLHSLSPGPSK
Procedure: as §1, §2, §3, §4

P38a = P38a (Homo sapiens (Human), UniProt Q16539); conditions: for inhibition at 1 µM: read-out: % inhibition (1 μM), 1 μM; for inhibition at 10 µM: read-out: % inhibition (10 μM), 10 μM
Chain of P38a (Q16539 whole entry): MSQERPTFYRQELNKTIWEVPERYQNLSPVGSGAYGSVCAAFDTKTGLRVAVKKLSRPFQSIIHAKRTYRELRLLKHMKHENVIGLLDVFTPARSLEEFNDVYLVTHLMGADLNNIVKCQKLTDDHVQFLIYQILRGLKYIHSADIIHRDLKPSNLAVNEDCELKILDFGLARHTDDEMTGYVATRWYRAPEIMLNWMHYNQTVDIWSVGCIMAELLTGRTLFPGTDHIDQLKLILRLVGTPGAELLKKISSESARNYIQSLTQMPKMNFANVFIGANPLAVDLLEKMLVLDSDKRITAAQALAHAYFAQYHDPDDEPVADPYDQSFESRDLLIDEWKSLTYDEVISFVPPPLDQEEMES
Procedure: as §1, §2, §3, §4

cKit = cKit (Homo sapiens (Human), UniProt P10721); conditions: for inhibition at 1 µM: read-out: % inhibition (1 μM), 1 μM; for inhibition at 10 µM: read-out: % inhibition (10 μM), 10 μM
Procedure: as §1, §2, §3, §4

LCK = LCK (Homo sapiens (Human), UniProt P06239); conditions: for inhibition at 1 µM: read-out: % inhibition (1 μM), 1 μM; for inhibition at 10 µM: read-out: % inhibition (10 μM), 10 μM
Procedure: as §1, §2, §3, §4

JAK2 = JAK2 (Homo sapiens (Human), UniProt O60674); conditions: for inhibition at 1 µM: read-out: % inhibition (1 μM), JAK2, 1 μM; for inhibition at 10 µM: read-out: % inhibition (10 μM), JAK2, 10 μM
Procedure: as §1, §2, §3, §4

FGFR3 = FGFR3 (Homo sapiens (Human), UniProt P22607); conditions: for inhibition at 1 µM: read-out: % inhibition (1 μM), FGFR3, 1 μM; for inhibition at 10 µM: read-out: % inhibition (10 μM), FGFR3, 10 μM
Procedure: as §1, §2, §3, §4

IKKB = IKKB (Homo sapiens (Human), UniProt O14920); conditions: for inhibition at 1 µM: read-out: % inhibition (1 μM), 1 μM; for inhibition at 10 µM: read-out: % inhibition (10 μM), 10 μM
Chain of IKKB (O14920 whole entry, species assumed): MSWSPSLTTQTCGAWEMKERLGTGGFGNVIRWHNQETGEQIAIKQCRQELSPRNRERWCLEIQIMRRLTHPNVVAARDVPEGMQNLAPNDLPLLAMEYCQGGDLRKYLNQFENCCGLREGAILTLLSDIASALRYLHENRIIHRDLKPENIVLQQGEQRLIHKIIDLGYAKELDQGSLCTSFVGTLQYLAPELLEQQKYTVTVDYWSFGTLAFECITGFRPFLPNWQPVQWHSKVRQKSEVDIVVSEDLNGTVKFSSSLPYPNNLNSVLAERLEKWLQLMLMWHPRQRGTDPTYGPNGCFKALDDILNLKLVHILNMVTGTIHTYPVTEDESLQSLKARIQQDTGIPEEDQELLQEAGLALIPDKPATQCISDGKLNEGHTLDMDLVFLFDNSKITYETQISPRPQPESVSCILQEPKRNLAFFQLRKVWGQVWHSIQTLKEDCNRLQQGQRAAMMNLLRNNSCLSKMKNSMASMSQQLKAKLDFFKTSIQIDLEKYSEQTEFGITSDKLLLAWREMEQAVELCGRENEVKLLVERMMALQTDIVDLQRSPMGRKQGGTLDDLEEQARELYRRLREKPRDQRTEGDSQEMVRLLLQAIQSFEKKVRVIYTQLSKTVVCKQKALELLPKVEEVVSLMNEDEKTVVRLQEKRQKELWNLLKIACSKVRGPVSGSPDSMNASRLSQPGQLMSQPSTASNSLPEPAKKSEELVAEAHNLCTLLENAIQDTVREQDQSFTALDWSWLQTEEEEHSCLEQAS
Procedure: as §1, §2, §3, §4

KDR = KDR (Homo sapiens (Human), UniProt P35968); conditions: for inhibition at 1 µM: read-out: % inhibition (1 μM), 1 μM; for inhibition at 10 µM: read-out: % inhibition (10 μM), 10 μM
Procedure: as §1, §2, §3, §4

HER2 = HER2 (Homo sapiens (Human), UniProt P04626); conditions: for inhibition at 1 µM: read-out: % inhibition (1 μM), HER2, 1 μM; for inhibition at 10 µM: read-out: % inhibition (10 μM), HER2, 10 μM
Chain of HER2 (P04626 23-1255, species assumed): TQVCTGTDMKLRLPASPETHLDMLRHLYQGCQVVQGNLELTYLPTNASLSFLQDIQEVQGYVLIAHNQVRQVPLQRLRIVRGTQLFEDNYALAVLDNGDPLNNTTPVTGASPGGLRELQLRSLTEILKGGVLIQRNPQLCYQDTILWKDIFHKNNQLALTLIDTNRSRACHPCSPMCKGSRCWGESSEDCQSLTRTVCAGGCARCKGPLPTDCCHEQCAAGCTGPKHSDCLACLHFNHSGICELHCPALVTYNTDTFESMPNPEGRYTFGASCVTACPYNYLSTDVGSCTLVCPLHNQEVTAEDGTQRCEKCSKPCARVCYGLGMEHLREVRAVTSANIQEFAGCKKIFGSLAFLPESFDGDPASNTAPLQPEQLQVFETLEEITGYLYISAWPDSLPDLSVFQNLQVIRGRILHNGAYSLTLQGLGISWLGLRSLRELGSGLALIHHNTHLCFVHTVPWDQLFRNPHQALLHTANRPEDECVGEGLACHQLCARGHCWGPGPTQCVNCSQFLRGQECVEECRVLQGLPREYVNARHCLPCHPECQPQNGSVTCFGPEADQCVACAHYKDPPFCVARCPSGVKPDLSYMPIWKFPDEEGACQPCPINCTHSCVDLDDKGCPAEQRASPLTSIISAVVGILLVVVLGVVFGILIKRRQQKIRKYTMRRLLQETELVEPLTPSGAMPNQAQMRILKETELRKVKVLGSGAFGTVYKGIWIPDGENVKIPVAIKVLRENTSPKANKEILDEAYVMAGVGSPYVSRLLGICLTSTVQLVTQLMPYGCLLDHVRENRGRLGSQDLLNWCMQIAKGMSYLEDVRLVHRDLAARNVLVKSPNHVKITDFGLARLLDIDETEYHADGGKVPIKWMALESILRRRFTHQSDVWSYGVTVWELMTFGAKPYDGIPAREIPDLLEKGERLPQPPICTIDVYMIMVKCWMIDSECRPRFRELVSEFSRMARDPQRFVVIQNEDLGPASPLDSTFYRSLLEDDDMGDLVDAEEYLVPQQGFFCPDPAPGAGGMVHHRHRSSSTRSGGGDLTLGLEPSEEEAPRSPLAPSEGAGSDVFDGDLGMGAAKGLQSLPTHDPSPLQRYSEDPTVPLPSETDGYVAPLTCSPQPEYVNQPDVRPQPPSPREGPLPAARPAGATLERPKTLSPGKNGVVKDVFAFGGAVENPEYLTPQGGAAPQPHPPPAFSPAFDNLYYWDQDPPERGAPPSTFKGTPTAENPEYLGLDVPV
Procedure: as §1, §2, §3, §4

FLT1 = FLT1 (Homo sapiens (Human), UniProt P17948); conditions: for inhibition at 1 µM: read-out: % inhibition (1 μM), FLT1, 1 μM; for inhibition at 10 µM: read-out: % inhibition (10 μM), FLT1, 10 μM
Procedure: as §1, §2, §3, §4

LYNA = LYNA (Homo sapiens (Human), UniProt P07948); conditions: for inhibition at 1 µM: read-out: % inhibition (1 μM), 1 μM; for inhibition at 10 µM: read-out: % inhibition (10 μM), 10 μM
Procedure: as §1, §2, §3, §4

PDGFRb = PDGFRb (Homo sapiens (Human), UniProt P09619); conditions: for inhibition at 1 µM: read-out: % inhibition (1 μM), 1 μM; for inhibition at 10 µM: read-out: % inhibition (10 μM), 10 μM
Procedure: as §1, §2, §3, §4

FLT3 = FLT3 (Homo sapiens (Human), UniProt P36888); conditions: for inhibition at 1 µM: read-out: % inhibition (1 μM), FLT3, 1 μM; for inhibition at 10 µM: read-out: % inhibition (10 μM), FLT3, 10 μM
Procedure: as §1, §2, §3, §4

IGF1R = IGF1R (Homo sapiens (Human), UniProt P08069); conditions: for inhibition at 1 µM: read-out: % inhibition (1 μM), 1 μM; for inhibition at 10 µM: read-out: % inhibition (10 μM), 10 μM
Chain of IGF1R (P08069 31-1367, species assumed): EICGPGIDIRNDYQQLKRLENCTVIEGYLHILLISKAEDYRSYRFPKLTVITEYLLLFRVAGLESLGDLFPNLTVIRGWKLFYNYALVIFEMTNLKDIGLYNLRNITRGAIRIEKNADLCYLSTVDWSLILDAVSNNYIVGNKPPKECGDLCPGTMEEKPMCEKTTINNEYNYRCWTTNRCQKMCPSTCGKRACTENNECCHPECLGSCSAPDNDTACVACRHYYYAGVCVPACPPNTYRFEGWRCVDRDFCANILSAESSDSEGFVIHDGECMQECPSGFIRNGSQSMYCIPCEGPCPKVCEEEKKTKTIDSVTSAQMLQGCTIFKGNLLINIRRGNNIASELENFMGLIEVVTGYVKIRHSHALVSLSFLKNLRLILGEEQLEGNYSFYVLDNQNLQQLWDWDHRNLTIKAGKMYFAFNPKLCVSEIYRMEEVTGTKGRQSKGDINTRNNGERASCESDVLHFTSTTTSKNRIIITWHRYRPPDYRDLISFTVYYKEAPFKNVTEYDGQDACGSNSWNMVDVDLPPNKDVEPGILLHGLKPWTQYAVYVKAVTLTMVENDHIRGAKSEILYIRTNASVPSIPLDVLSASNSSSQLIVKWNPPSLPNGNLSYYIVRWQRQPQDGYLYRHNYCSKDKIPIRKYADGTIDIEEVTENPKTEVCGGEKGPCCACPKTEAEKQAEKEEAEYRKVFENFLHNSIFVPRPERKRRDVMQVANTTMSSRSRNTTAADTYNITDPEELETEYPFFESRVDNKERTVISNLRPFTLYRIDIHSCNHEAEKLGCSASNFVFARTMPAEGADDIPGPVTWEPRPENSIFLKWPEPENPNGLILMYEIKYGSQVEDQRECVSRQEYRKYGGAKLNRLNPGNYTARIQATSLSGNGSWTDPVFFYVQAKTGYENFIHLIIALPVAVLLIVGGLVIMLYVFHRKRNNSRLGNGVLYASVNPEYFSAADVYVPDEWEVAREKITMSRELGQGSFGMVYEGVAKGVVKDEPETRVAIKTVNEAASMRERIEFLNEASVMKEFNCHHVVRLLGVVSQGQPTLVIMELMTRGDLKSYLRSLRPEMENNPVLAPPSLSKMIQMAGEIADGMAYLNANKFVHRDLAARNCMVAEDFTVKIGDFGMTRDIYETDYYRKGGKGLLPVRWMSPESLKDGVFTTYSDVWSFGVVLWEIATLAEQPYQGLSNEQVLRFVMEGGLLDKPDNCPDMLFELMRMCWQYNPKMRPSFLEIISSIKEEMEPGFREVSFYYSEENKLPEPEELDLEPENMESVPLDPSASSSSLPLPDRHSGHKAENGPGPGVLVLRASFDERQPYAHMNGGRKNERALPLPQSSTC
Procedure: as §1, §2, §3, §4

C-MET = C-MET (Homo sapiens (Human), UniProt P08581); conditions: for inhibition at 1 µM: read-out: % inhibition (1 μM), 1 μM; for inhibition at 10 µM: read-out: % inhibition (10 μM), 10 μM
Procedure: as §1, §2, §3, §4

SRC = SRC (Homo sapiens (Human), UniProt P12931); conditions: for inhibition at 1 µM: read-out: % inhibition (1 μM), 1 μM; for inhibition at 10 µM: read-out: % inhibition (10 μM), 10 μM
Procedure: as §1, §2, §3, §4

ERK1 = ERK1 (Homo sapiens (Human), UniProt P27361); conditions: for inhibition at 1 µM: read-out: % inhibition (1 μM), ERK1, 1 μM; for inhibition at 10 µM: read-out: % inhibition (10 μM), ERK1, 10 μM
Procedure: as §1, §2, §3, §4

FGFR1 = FGFR1 (Homo sapiens (Human), UniProt P11362); conditions: for inhibition at 1 µM: read-out: % inhibition (1 μM), FGFR1, 1 μM; for inhibition at 10 µM: read-out: % inhibition (10 μM), FGFR1, 10 μM
Chain of FGFR1 (P11362 22-822, species assumed): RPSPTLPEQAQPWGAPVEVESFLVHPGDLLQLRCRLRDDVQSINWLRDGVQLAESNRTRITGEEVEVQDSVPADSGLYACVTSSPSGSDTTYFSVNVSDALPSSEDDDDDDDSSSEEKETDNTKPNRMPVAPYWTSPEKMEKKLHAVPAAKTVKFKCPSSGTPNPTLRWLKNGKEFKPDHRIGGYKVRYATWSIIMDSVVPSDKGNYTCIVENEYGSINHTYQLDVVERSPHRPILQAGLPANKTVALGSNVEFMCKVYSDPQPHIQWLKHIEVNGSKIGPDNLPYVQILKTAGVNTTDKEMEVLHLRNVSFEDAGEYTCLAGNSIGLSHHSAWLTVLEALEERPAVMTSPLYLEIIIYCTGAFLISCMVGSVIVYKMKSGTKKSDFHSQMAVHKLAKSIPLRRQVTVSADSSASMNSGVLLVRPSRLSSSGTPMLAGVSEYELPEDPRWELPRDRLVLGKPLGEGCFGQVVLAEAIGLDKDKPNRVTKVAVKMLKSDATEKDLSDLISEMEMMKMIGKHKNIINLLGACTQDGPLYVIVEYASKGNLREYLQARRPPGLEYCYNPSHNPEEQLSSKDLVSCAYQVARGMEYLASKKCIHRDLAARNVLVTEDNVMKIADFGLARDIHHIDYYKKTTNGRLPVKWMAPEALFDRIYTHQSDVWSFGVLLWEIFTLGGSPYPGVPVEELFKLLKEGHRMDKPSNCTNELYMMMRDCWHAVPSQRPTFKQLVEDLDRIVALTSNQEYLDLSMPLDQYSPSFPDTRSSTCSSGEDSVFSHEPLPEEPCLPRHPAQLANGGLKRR
Procedure: as §1, §2, §3, §4

Row | SMILES | inhibition at 1 µM (PDGFRa) [%] | inhibition at 10 µM (PDGFRa) [%] | inhibition at 1 µM (PIM1) [%] | inhibition at 10 µM (PIM1) [%] | inhibition at 1 µM (P38a) [%] | inhibition at 10 µM (P38a) [%] | inhibition at 1 µM (cKit) [%] | inhibition at 10 µM (cKit) [%] | inhibition at 1 µM (LCK) [%] | inhibition at 10 µM (LCK) [%] | inhibition at 1 µM (JAK2) [%] | inhibition at 10 µM (JAK2) [%] | inhibition at 1 µM (FGFR3) [%] | inhibition at 10 µM (FGFR3) [%] | inhibition at 1 µM (IKKB) [%] | inhibition at 10 µM (IKKB) [%] | inhibition at 1 µM (KDR) [%] | inhibition at 10 µM (KDR) [%] | inhibition at 1 µM (HER2) [%] | inhibition at 10 µM (HER2) [%] | other results
1 | C=CC(=O)Nc1cccc(-n2c(=O)cnc3cnc(Nc4ccc(N5CCN(C)CC5)cc4)nc32)c1 [Compound 020, N-(3-(2-(4-(4-methyl-1-piperazinyl)-phenylamino)-7-oxo-8(7H)-pteridin-yl)phenyl) acrylamide] | 4.9 | 35 | 8.2 | 54 | 2.8 | 21 | -12 | -3.2 | 18 | 73 | 22 | 36 | 14 | 33 | 9.4 | 2 | 25 | 73 | 97 | 98 | inhibition at 1 µM (FLT1): 17%; inhibition at 10 µM (FLT1): 58%; inhibition at 1 µM (LYNA): 11%; inhibition at 10 µM (LYNA): 40%; inhibition at 1 µM (PDGFRb): 42%; inhibition at 10 µM (PDGFRb): 84%; inhibition at 1 µM (FLT3): 82%; inhibition at 10 µM (FLT3): 99%; inhibition at 1 µM (IGF1R): 21%; inhibition at 10 µM (IGF1R): 36%; inhibition at 1 µM (C-MET): 27%; inhibition at 10 µM (C-MET): 53%; inhibition at 1 µM (SRC): 27%; inhibition at 10 µM (SRC): 72%; inhibition at 1 µM (ERK1): 1.3%; inhibition at 10 µM (ERK1): 19%; inhibition at 1 µM (FGFR1): 19%; inhibition at 10 µM (FGFR1): 63%
2 | C=CC(=O)Nc1cccc(-n2c(=O)cnc3cnc(Nc4ccc(N5CCN(C)CC5)cc4OC)nc32)c1 [Compound 032, N-(3-(2-(2-methoxy-4-(4-methyl-1-piperazinyl)-phenylamino)-7-oxo-8(7H)-pteridin-yl)phenyl)acrylamide] | 1.2 | 18 | 2.1 | 8.9 | -5.6 | 1.2 | -9.3 | -4.8 | 14 | 54 | 9.9 | 22 | 11 | 13 | -3.3 | -4.3 | 3.8 | 29 | 89 | 100 | inhibition at 1 µM (FLT1): 9.4%; inhibition at 10 µM (FLT1): 11%; inhibition at 1 µM (LYNA): 6.1%; inhibition at 10 µM (LYNA): 20%; inhibition at 1 µM (PDGFRb): 14%; inhibition at 10 µM (PDGFRb): 61%; inhibition at 1 µM (FLT3): 60%; inhibition at 10 µM (FLT3): 91%; inhibition at 1 µM (IGF1R): 15%; inhibition at 10 µM (IGF1R): 37%; inhibition at 1 µM (C-MET): 13%; inhibition at 10 µM (C-MET): 28%; inhibition at 1 µM (SRC): 6.6%; inhibition at 10 µM (SRC): 33%; inhibition at 1 µM (ERK1): 11%; inhibition at 10 µM (ERK1): -4%; inhibition at 1 µM (FGFR1): 7.9%; inhibition at 10 µM (FGFR1): 42%
